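Protocol summary: plate cells (96-well), add compound at 5 concentrations, incubate 48 h, interpolate endpoints linearly. Definition used: TGI = concentration required for complete inhibition of growth.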 Where a SMILES comes first, the peptide text is derived from it. The star is where a group is joined. Cbz = O=C(OCc1ccccc1)*
Tests used:
Assay in all cases: NCI-60 cell line screen, 48 h
[1] = tested on: SK-MEL-28 melanoma
[2] = tested on: SR leukemia
[3] = tested on: TK-10 renal
[4] = tested on: HT29 colon
[5] = tested on: SW-620 colon
[6] = tested on: T-47D breast
[7] = tested on: M14 melanoma
[8] = tested on: 786-0 renal
[9] = tested on: UACC-257 melanoma
[10] = tested on: CCRF-CEM leukemia
[11] = tested on: RXF 393 renal
[12] = tested on: SF-295 CNS
[13] = tested on: BT-549 breast
[14] = tested on: MDA-N
[15] = tested on: CAKI-1 renal
[16] = tested on: K-562 leukemia

| Structure (SMILES) | TGI [1] [µM] | TGI [2] [µM] | TGI [3] [µM] | TGI [4] [µM] | TGI [5] [µM] | TGI [6] [µM] | TGI [7] [µM] | TGI [8] [µM] | TGI [9] [µM] | TGI [10] [µM] | TGI [11] [µM] | TGI [12] [µM] | TGI [13] [µM] | TGI [14] [µM] | TGI [15] [µM] | TGI [16] [µM] |
| --- | --- | --- | --- | --- | --- | --- | --- | --- | --- | --- | --- | --- | --- | --- | --- | --- |
| COC(=O)C1(C)CCCC2(C)C3CCC4CC3(C=C4CO)CCC12 (configuration not stated) | > 100 | 62 | > 100 | 30.9 | > 100 | > 100 | > 100 | > 100 | > 100 | > 100 | > 100 | > 100 | > 100 | > 100 | > 100 | – |
| CN(C)/C=C/c1ccncc1 | > 100 | > 100 | > 100 | > 100 | > 100 | > 100 | > 100 | > 100 | > 100 | > 100 | > 100 | > 100 | > 100 | > 100 | > 100 | > 100 |
| COc1cccc(C[C@H]2COC(=O)[C@]2(O)Cc2cccc(OC)c2)c1 | > 100 | > 100 | > 100 | > 100 | > 100 | 67.9 | > 100 | > 100 | > 100 | > 100 | – | > 100 | > 100 | > 100 | > 100 | > 100 |
| CCCCc1ccc(Nc2nc(N)c3ncn(COCCO)c3n2)cc1 | – | > 100 | > 100 | 57.2 | > 100 | 91.6 | 45.3 | 65.4 | 44.4 | > 100 | 98.2 | 41.2 | 59.8 | > 100 | > 100 | > 100 |
| COc1ccc2nc3ccc(OC)cc3c(SCC3CO3)c2c1 (configuration not stated) | 33.5 | 80.4 | 25.8 | – | 24.4 | 43.6 | 29 | 23.7 | 29.8 | > 100 | 33.5 | > 100 | 30.4 | 30.6 | 19.1 | 54.1 |
| COc1cc(/C=C2\CC3C4CC[C@H]5C[C@@H](O)CC[C@]5(C)C4CC[C@]3(C)C2=O)cc(OC)c1OC (some centres not stated) | > 100 | – | > 100 | > 100 | > 100 | 34.8 | 61 | > 100 | > 100 | > 100 | > 100 | 21.5 | > 100 | > 100 | 44.9 | > 100 |
| C/C(=N/NC(=S)NCCc1ccccn1)c1cnccn1 | > 100 | 65.9 | > 100 | > 100 | > 100 | > 100 | > 100 | 57.2 | > 100 | 68.9 | – | 63.8 | > 100 | > 100 | > 100 | – |
| COc1cc(C2(O)c3ccccc3C3=NCCN32)cc(OC)c1OC (configuration not stated) | > 100 | > 100 | > 100 | > 100 | > 100 | > 100 | – | > 100 | > 100 | > 100 | – | > 100 | > 100 | > 100 | > 100 | > 100 |
| O=C1c2ccccc2-c2c1c(-c1ccccc1)c1n2C2(C(=O)c3ccccc3C2=O)C2C(=O)N(c3ccccc3)C(=O)C12 (configuration not stated) | > 100 | – | > 100 | 41.6 | > 100 | 65.7 | > 100 | 68.9 | > 100 | 60 | 41.5 | > 100 | 45.2 | 65.3 | > 100 | – |
| CC[N+]1(C)CCC(O)(/C=C/c2ccc(Cl)cc2)C(C(=O)/C=C/c2ccc(Cl)cc2)C1 (configuration not stated) | 23.2 | – | 13 | 14.1 | – | 77.4 | > 38 | > 26.5 | > 52 | 3.85 | 25.4 | 37 | 39.3 | > 34.4 | 3.71 | 5.71 |
| COc1ccc2c(c1)N=C1CSC(c3c(Cl)cccc3[N+](=O)[O-])N1C2 (configuration not stated) | > 100 | – | > 100 | > 100 | > 100 | > 100 | > 100 | > 100 | > 100 | – | > 100 | > 100 | 62.9 | > 100 | > 100 | > 100 |
| Clc1ccccc1-c1nnc2c(-c3ccccc3)nc3ccccc3n12 | > 100 | > 100 | > 100 | > 100 | > 100 | 69.2 | > 100 | > 100 | > 100 | 83.2 | > 100 | – | > 100 | > 100 | – | > 100 |
| O=C1NC(=NC2CCCCC2)C2(CCN(CCCC3(c4ccc(F)cc4)OCCO3)CC2)N1c1ccccc1 | 35.6 | 31.4 | 32.7 | 33.1 | 50.2 | 53.2 | 41.5 | 30.2 | 28.7 | > 100 | 31.1 | 35.1 | 18.5 | 28.7 | 50.3 | – |
| COC(=O)CCC(C)C1CCC2C3CCC4CC5CCC4(C)C3(O5)C(Br)C(Br)C12C (configuration not stated) | > 100 | > 100 | > 100 | > 100 | > 100 | > 100 | > 100 | > 100 | > 100 | – | > 100 | > 100 | > 100 | > 100 | > 100 | > 100 |
| Nc1cccc(C#Cc2cccc(C#Cc3cccc(N)n3)n2)n1 | – | > 100 | > 100 | – | > 100 | > 100 | > 100 | > 100 | > 100 | 31.4 | > 100 | > 100 | > 100 | > 100 | > 100 | > 100 |
| CCOC(=O)C(CC(=O)OC)NC(=O)C(CC(=O)OC)NC(=O)C(CC(=O)OC)NC(=O)C(CC(=O)OC)NC(=O)OCc1ccccc1 (configuration not stated) (Cbz-D(OMe)D(OMe)D(OMe)D(OMe)-OEt; configuration not given here) | > 100 | > 100 | > 100 | > 100 | > 100 | > 100 | > 100 | > 100 | > 100 | – | > 100 | – | > 100 | > 100 | – | > 100 |
| O=C1C(=C(C(=O)c2ccccc2)C(=O)c2ccccc2)OC(c2ccccc2)=C1C(=O)c1ccccc1 | 59 | 14.2 | 61.4 | 26.5 | – | 53.6 | 31 | 20 | 55.1 | 10.9 | 8.13 | 32.1 | 19.9 | 77.9 | 11.2 | 95 |
| CN(C)CCNC(=O)c1cc(-c2nccn2C)nc2ccccc12 | – | > 100 | > 100 | > 100 | > 100 | > 100 | > 100 | > 100 | > 100 | > 100 | > 100 | – | > 100 | > 100 | > 100 | > 100 |
| O=C(n1c(=O)n(-c2ccc(Cl)cc2)c(=O)n1C(=O)C(Cl)(Cl)Cl)C(Cl)(Cl)Cl | > 100 | > 100 | > 100 | > 100 | > 100 | > 100 | – | > 100 | > 100 | > 100 | – | > 100 | > 100 | > 100 | > 100 | > 100 |
| CC(C)c1nc2c(Cl)c3ncccc3cc2[nH]c1=O | > 100 | > 100 | – | > 100 | > 100 | > 100 | > 100 | > 100 | > 100 | > 100 | > 100 | > 100 | > 100 | > 100 | > 100 | > 100 |
| NS(=O)(=O)c1nnc(/N=C(/CCC(=O)O)C(=O)O)s1 | > 100 | > 100 | > 100 | > 100 | > 100 | > 100 | > 100 | > 100 | > 100 | > 100 | – | > 100 | > 100 | > 100 | > 100 | > 100 |
| Fc1ccc(Nc2nnc(-c3ccccn3)s2)cc1 | > 100 | – | > 100 | > 100 | > 100 | > 100 | > 100 | > 100 | > 100 | > 100 | > 100 | > 100 | > 100 | > 100 | > 100 | – |
| Nc1ccccc1OCc1cc(=O)c(OCc2ccccc2)co1 | > 100 | > 100 | 61.2 | > 100 | > 100 | > 100 | > 100 | 76.5 | 81.7 | > 100 | – | 95.1 | > 100 | > 100 | > 100 | > 100 |
| CCN1C[C@]2(C)CC[C@H](OCc3ccccc3)C34C5C[C@@H]6CC[C@](O)(C(C[C@@H]32)C14)C5[C@H]6OCc1ccccc1 (some centres not stated) | > 100 | > 100 | > 100 | > 100 | > 100 | > 100 | > 100 | > 100 | > 100 | > 100 | > 100 | > 100 | > 100 | > 100 | – | > 100 |
| C/C(=N\NC(=S)NNC(=S)N(C)c1ccccc1)c1ccccn1 | > 100 | – | > 100 | > 100 | > 100 | 72.8 | 2.56 | > 47.2 | > 100 | – | 17 | > 100 | > 100 | > 100 | 8.39 | > 100 |
| O=C(/C=C(\O)c1ccc(Cl)cc1)C(=O)NN=C(c1ccccc1)c1ccccc1 | – | > 100 | > 100 | > 100 | – | > 100 | > 100 | > 100 | > 100 | 98.5 | > 100 | > 100 | > 100 | > 100 | > 100 | > 100 |
| CCOC(=O)c1nc2ccccc2nc1Oc1ccc(OC)cc1 | > 100 | > 100 | > 100 | > 100 | > 100 | > 100 | > 100 | > 100 | > 100 | > 100 | > 100 | > 100 | > 100 | > 100 | – | > 100 |
| O=C(NCCN1CCCC1)c1cn2c(ccc3sc4ccccc4c(=O)c32)n1 | 33.8 | 8.79 | 25.7 | 7.67 | 3.32 | 38.1 | 29.2 | 2.78 | 35 | 4.53 | 24.6 | 27.1 | 35.6 | 33.1 | 24.2 | – |
| Cc1nn(C(=O)Cc2ccccc2)c2c1C(c1ccccc1[N+](=O)[O-])SC(N)=N2 (configuration not stated) | > 100 | > 100 | > 100 | > 100 | > 100 | > 100 | > 100 | > 100 | > 100 | > 100 | – | > 100 | > 100 | > 100 | > 100 | > 100 |
| COC(=O)c1c(O)ccc2c1c1c(n2-c2ccc(OC)cc2)C(=O)c2ccccc2C1=O | > 100 | – | 39.5 | 15.2 | > 100 | 66.2 | > 100 | 29.1 | > 100 | > 100 | 25.7 | 44.1 | 84.9 | > 100 | 66 | > 100 |

— PubChem BioAssay (NCI)
